Experiments:
[1] = biological target: human PDE4D3 (PDE4D) (Homo sapiens (Human), UniProt Q08499); test: Phosphodiesterase (PDE)4 inhibitory activity evaluation test ([3H]cAMP hydrolysis by PDE4D enzyme solution); format: biochemical; settings: recombinant human PDE4D3 expressed in COS-7 cells; [3H]cAMP substrate; 10 min at 30° C.; 2% DMSO
Method in brief: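 Human PDE4D3 expressed in COS-7 cells; cell supernatant used as enzyme at a dilution giving 10–30% cAMP turnover. Compounds (10-fold serial dilutions, 2% final DMSO) incubated with enzyme and 2 μM [3H]cAMP stock in 20 mM Tris-HCl pH 7.4 with MgCl2 for 10 min at 30° C. Reaction stopped by boiling.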

[2] = system: TNF-α production in mouse peripheral blood mononuclear cells; test: Inhibitory activity measurement on TNF-α production (LPS-stimulated mouse peripheral blood mononuclear cells, ELISA); format: cell-based, mouse (male BALB/c); settings: PBMC, LPS 1 μg/ml, 5 hours at 37° C., ELISA of culture supernatant
Experimental: Inhibitory Activity Measurement on TNF-α Production
TNF-α production inhibitory activity was evaluated according to the following tests.
(1) Isolation of Mononuclear Cells from Mouse Peripheral Blood
Mononuclear cells were isolated from heparinized blood obtained from male BALB/c mice (Charles River Laboratories, Japan) by density gradient centrifugation using Lympholyte-M (Cedarlane Laboratories). Viable cell numbers in the peripheral blood mononuclear cells were counted using trypan blue dye, and prepared in cell culture medium (RPMI 1640 medium containing 10% FCS) to 1.25×10^6 cells/ml.
(2) Induction of TNF-α Production
Test compounds were dissolved in DMSO, and test compound solutions were diluted for use in cell culture media. 20 μl test compound solutions of different concentrations and 160 μl peripheral blood mononuclear cell suspensions were placed in a 96-well plate, and cultured for 30 minutes. 20 μl (final concentration 1 μg/ml) lipopolysaccharide (LPS) derived from E. coli (serotype 055:B5) was added thereto to induce THF-α production. The mixtures were then cultured at 37° C. for 5 hours, and the culture supernatant was removed from each well.
(3) Measurement of TNF-α Concentration
TNF-α concentrations in the culture supernatants were measured by ELISA (OptEIA™ Set Mouse TNF-α, BD Pharmingen). The IC50 values (concentration which produced 50% inhibition of TNF-α production) for the test compounds were determined with the Excel (Microsoft Excel 2000 SR-1) statistical package using regression analysis function.

Sequence of human PDE4D3 (PDE4D) (Q08499 other isoform, or with tags, fused parts or gaps): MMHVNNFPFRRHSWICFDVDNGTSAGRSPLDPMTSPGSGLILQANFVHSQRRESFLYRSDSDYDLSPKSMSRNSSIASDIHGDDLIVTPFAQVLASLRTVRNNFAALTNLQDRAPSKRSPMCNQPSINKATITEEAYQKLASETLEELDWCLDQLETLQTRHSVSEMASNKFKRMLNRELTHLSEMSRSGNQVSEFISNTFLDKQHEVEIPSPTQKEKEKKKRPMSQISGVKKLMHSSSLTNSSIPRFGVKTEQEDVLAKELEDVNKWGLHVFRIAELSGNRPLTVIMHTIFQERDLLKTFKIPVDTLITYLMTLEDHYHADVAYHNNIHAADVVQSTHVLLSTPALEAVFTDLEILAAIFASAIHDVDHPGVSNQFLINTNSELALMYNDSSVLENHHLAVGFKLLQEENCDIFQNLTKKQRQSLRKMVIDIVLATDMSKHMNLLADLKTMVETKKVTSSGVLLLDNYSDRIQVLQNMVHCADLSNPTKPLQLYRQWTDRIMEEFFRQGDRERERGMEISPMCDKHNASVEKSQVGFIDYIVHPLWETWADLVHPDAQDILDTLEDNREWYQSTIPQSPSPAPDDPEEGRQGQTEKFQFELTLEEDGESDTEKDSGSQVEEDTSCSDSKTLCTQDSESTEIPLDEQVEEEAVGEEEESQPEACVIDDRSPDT

| Structure (SMILES) | IC50 [1] | IC50 [2] |
| --- | --- | --- |
| COc1ccc(-c2nc(CNC(=O)c3c(F)cccc3OC)co2)cc1OCC1CC1 [Example 43, N-[2-(3-cyclopropylmethoxy-4-methoxyphenyl)oxazol-4-ylmethyl]-2-fluoro-6-methoxybenzamide] | < 50 nM | < 50 nM |
| C=CCOc1ccccc1C(=O)CCc1coc(-c2ccc(OC)c(OCC3CC3)c2)n1 [Example 177, 1-(2-allyloxyphenyl)-3-[2-(3-cyclopropylmethoxy-4-methoxyphenyl)oxazol-4-yl]propan-1-one] | < 50 nM | < 50 nM |
| COc1ccc(-c2nc(CNC(=O)c3ncccc3C)co2)cc1OC1CCCC1 [Example 18, N-[2-(3-cyclopentyloxy-4-methoxyphenyl)oxazol-4-ylmethyl]-3-methylpicolinamide] | < 50 nM | < 50 nM |
| COc1ccc(-c2nc(CCC(=O)c3ncccc3OC)co2)cc1OCC1CC1 [Example 126] |  | < 50 nM |
| COc1ccc(-c2nc(CCC(=O)c3ncccc3C)co2)cc1OC1C=CCCC1 (stereo not shown) [Example 157, 3-{2-[3-(2-cyclohexenyloxy)-4-methoxyphenyl]oxazol-4-yl}-1-(3-methylpyridin-2-yl)propan-1-one] | < 50 nM | < 50 nM |
| CCOc1ccc(-c2nc(CCC(=O)c3ncccc3C)co2)cc1OCC(F)F [Example 318, 3-{2-[3-(2,2-difluoroethoxy)-4-ethoxyphenyl]oxazol-4-yl}-1-(3-methylpyridin-2-yl)-propan-1-one] | < 50 nM |  |
| Cc1cccnc1C(=O)NCc1coc(-c2ccc(OC(F)F)c(OCC3CCC3)c2)n1 [Example 345, N-[2-(3-cyclobutylmethoxy-4-difluoromethoxyphenyl)oxazol-4-ylmethyl]-3-methyl picolinamide] | < 50 nM |  |
| COc1ccc(-c2nc(CCC(=O)c3ncccc3OC)co2)cc1OCC(F)(F)F [Example 129, 1-(3-methoxypyridin-2-yl)-3-{2-[4-methoxy-3-(2,2,2-trifluoroethoxy)phenyl]oxazol-4-yl}propan-1-one] | < 50 nM |  |
| CCOc1cc(-c2nc(CNC(=O)c3ncccc3C)co2)ccc1OC(F)F [Example 338, N-[2-(4-difluoromethoxy-3-ethoxyphenyl)-oxazol-4-ylmethyl]-3-methylpicolinamide] | < 50 nM |  |

Source: patent USRE46792E1, “Oxazole compound and pharmaceutical composition” (Otsuka Pharmaceutical Co., Ltd., priority 2005, dated 2018)
